Consider 25 substances from the OligoGym collection.

This series has as its target PRNP. Description: mouse, dose not given. To be noted: ASO.

HELM strings list units from the 5' end as sugar, base in round brackets, then linkage (d deoxyribose, r ribose, m 2'-O-methyl, p phosphodiester). Strings are as the collection lists them; they lack the last nucleoside at the 3' end of the tested compound. [moe] = 2'-O-(2-methoxyethyl) (MOE); [sp] = phosphorothioate linkage; [m5C] = 5-methylcytosine

On to “RNA1{[moe](A)[sp].[moe]([m5C])p.[moe](T)p.[moe](T)p.d(G)[sp].d(T)[sp].d([m5C])[sp].d(A)[sp].d(G)[sp].d(T)[sp].d(T)[sp].d(T)[sp].d(T)[sp].d(T)[sp].[moe]([m5C])p.[moe]([m5C])p.[moe]([m5C])p.[moe]([m5C])[sp].[moe](A)}$$$$ (last 3' nucleoside missing)”, for which the 3 h FOB score is 2.5 score 0-7.
Turning to “RNA1{[moe](G)[sp].[moe](G)p.[moe](T)p.[moe](G)p.[moe](A)[sp].d(T)[sp].d(T)[sp].d(T)[sp].d(T)[sp].d(T)[sp].d(T)[sp].d([m5C])[sp].d([m5C])[sp].d(T)[sp].d(T)[sp].[moe](T)p.[moe]([m5C])p.[moe](T)[sp].[moe](T)}$$$$ (last 3' nucleoside missing)”, the 3 h FOB score turned out to be 1 score 0-7.
The same measure for “RNA1{[moe](A)[sp].[moe]([m5C])p.[moe](T)p.[moe](G)p.[moe](A)[sp].d(A)[sp].d(T)[sp].d(T)[sp].d(T)[sp].d(T)[sp].d([m5C])[sp].d(T)[sp].d([m5C])[sp].d(T)[sp].d([m5C])[sp].[moe]([m5C])p.[moe]([m5C])p.[moe](A)[sp].[moe](G)}$$$$ (last 3' nucleoside missing)”: 0 score 0-7; for “RNA1{[moe](G)[sp].[moe]([m5C])p.[moe](T)p.[moe](T)p.[moe](A)[sp].d(A)[sp].d(T)[sp].d(T)[sp].d(A)[sp].d(G)[sp].d(T)[sp].d(T)[sp].d(A)[sp].d([m5C])[sp].d(A)[sp].[moe](T)p.[moe]([m5C])p.[moe](G)[sp].[moe](G)}$$$$ (last 3' nucleoside missing)”: 4.5 score 0-7; for “RNA1{[moe]([m5C])[sp].[moe](T)p.[moe](G)p.[moe]([m5C])p.[moe]([m5C])[sp].d(T)[sp].d(T)[sp].d(A)[sp].d(A)[sp].d(T)[sp].d(T)[sp].d(A)[sp].d([m5C])[sp].d([m5C])[sp].d(T)[sp].[moe](A)p.[moe](T)p.[moe](A)[sp].[moe](G)}$$$$ (last 3' nucleoside missing)”: 0.25 score 0-7.
The same measure for “RNA1{[moe](G)[sp].[moe](G)p.[moe](T)p.[moe](T)p.[moe](T)[sp].d(T)[sp].d(T)[sp].d(G)[sp].d(G)[sp].d([m5C])[sp].d(T)[sp].d(T)[sp].d(A)[sp].d([m5C])[sp].d(T)[sp].[moe]([m5C])p.[moe](G)p.[moe](G)[sp].[moe]([m5C])}$$$$ (last 3' nucleoside missing)”: 4 score 0-7.
The same measure for “RNA1{[moe](G)[sp].[moe](G)p.[moe](G)p.[moe](A)p.[moe](T)[sp].d(G)[sp].d(A)[sp].d(T)[sp].d([m5C])[sp].d(T)[sp].d(G)[sp].d([m5C])[sp].d(A)[sp].d(A)[sp].d(T)[sp].[moe](T)p.[moe](G)p.[moe](T)[sp].[moe](T)}$$$$ (last 3' nucleoside missing)”: 4 score 0-7; for “RNA1{[moe](A)[sp].[moe](G)p.[moe]([m5C])p.[moe](T)p.[moe]([m5C])[sp].d(T)[sp].d(A)[sp].d(T)[sp].d(T)[sp].d(A)[sp].d(A)[sp].d(T)[sp].d(A)[sp].d(G)[sp].d(G)[sp].[moe](T)p.[moe](T)p.[moe](A)[sp].[moe](G)}$$$$ (last 3' nucleoside missing)”: 5.5 score 0-7.
Substance “RNA1{[moe](G)[sp].[moe]([m5C])p.[moe](T)p.[moe](T)p.d(A)[sp].d(T)[sp].d(T)[sp].d(A)[sp].d(T)[sp].d(T)[sp].d([m5C])[sp].d(A)[sp].d(T)[sp].d(G)[sp].[moe](T)p.[moe](T)p.[moe]([m5C])p.[moe](T)[sp].[moe]([m5C])}$$$$ (last 3' nucleoside missing)” registered a 3 h FOB score of 1 score 0-7.
Then “RNA1{[moe](T)[sp].[moe](G)p.[moe](G)p.[moe](T)p.[moe](T)[sp].d(A)[sp].d([m5C])[sp].d(A)[sp].d(T)[sp].d(A)[sp].d(A)[sp].d(T)[sp].d(G)[sp].d(T)[sp].d(T)[sp].[moe]([m5C])p.[moe](A)p.[moe](T)[sp].[moe](T)}$$$$ (last 3' nucleoside missing)”, with 4 score 0-7; and “RNA1{[moe](T)[sp].[moe](G)p.[moe](T)p.[moe](T)p.[moe](A)[sp].d(T)[sp].d(T)[sp].d(T)[sp].d([m5C])[sp].d([m5C])[sp].d(T)[sp].d([m5C])[sp].d(T)[sp].d(G)[sp].d(T)[sp].[moe](G)p.[moe]([m5C])p.[moe](T)[sp].[moe](T)}$$$$ (last 3' nucleoside missing)”, with 3.75 score 0-7.
Then “RNA1{[moe]([m5C])[sp].[moe]([m5C])p.[moe](A)p.[moe](T)p.[moe](T)[sp].d(T)[sp].d(T)[sp].d([m5C])[sp].d(T)[sp].d(G)[sp].d(T)[sp].d(G)[sp].d([m5C])[sp].d(T)[sp].d(T)[sp].[moe](T)p.[moe](T)p.[moe]([m5C])[sp].[moe]([m5C])}$$$$ (last 3' nucleoside missing)”, with 4 score 0-7; and “RNA1{[moe](T)[sp].[moe](T)p.[moe](G)p.[moe](T)p.[moe](G)[sp].d(A)[sp].d([m5C])[sp].d(A)[sp].d(A)[sp].d(T)[sp].d(A)[sp].d(T)[sp].d(T)[sp].d(T)[sp].d(A)[sp].[moe]([m5C])p.[moe](T)p.[moe]([m5C])[sp].[moe](T)}$$$$ (last 3' nucleoside missing)”, with 0 score 0-7.
Then “RNA1{[moe](G)[sp].[moe]([m5C])p.[moe](A)p.[moe]([m5C])p.d(A)[sp].d([m5C])[sp].d(T)[sp].d(G)[sp].d(A)[sp].d([m5C])[sp].d([m5C])[sp].d(A)[sp].d(T)[sp].d(T)[sp].[moe](T)p.[moe](T)p.[moe](T)p.[moe](T)[sp].[moe](A)}$$$$ (last 3' nucleoside missing)”, with 2.25 score 0-7.
In the case of “RNA1{[moe](T)[sp].[moe]([m5C])p.[moe](A)p.[moe](T)p.[moe](A)p.d(A)[sp].d(T)[sp].d(T)[sp].d(T)[sp].d(T)[sp].d([m5C])[sp].d(T)[sp].d(T)[sp].d(A)[sp].[moe](G)p.[moe]([m5C])p.[moe](T)[sp].[moe](A)}$$$$ (last 3' nucleoside missing)”, the 3 h FOB score came to 0 score 0-7.
“RNA1{[moe](G)[sp].[moe]([m5C])p.[moe](T)p.[moe](T)p.[moe]([m5C])[sp].d(T)[sp].d([m5C])[sp].d(A)[sp].d(A)[sp].d(T)[sp].d(T)[sp].d(T)[sp].d(T)[sp].d(T)[sp].d([m5C])[sp].[moe]([m5C])p.[moe](A)p.[moe](A)[sp].[moe]([m5C])}$$$$ (last 3' nucleoside missing)”: the 3 h FOB score was found to be 0 score 0-7.
Then “RNA1{[moe](G)[sp].[moe]([m5C])p.[moe](T)p.[moe](T)p.[moe](A)p.d([m5C])[sp].d(T)[sp].d([m5C])[sp].d(G)[sp].d(G)[sp].d([m5C])[sp].d(T)[sp].d(T)[sp].d(G)[sp].[moe](T)[sp].[moe](T)p.[moe]([m5C])p.[moe]([m5C])}$$$$ (last 3' nucleoside missing)”, with 4.5 score 0-7; and “RNA1{[moe](A)[sp].[moe]([m5C])p.[moe](A)p.[moe](A)p.[moe](T)[sp].d([m5C])[sp].d(T)[sp].d(G)[sp].d(T)[sp].d(T)[sp].d(G)[sp].d(T)[sp].d(G)[sp].d(G)[sp].d(T)[sp].[moe](T)p.[moe]([m5C])p.[moe](A)[sp].[moe](G)}$$$$ (last 3' nucleoside missing)”, with 6.5 score 0-7; and “RNA1{[moe](G)[sp].[moe]([m5C])p.[moe]([m5C])p.[moe](A)p.[moe]([m5C])p.[moe](A)p.d(T)[sp].d(A)[sp].d(T)[sp].d(A)[sp].d(G)[sp].d(G)[sp].d(G)[sp].d(T)[sp].d([m5C])[sp].d([m5C])[sp].[moe](T)p.[moe](T)[sp].[moe](T)}$$$$ (last 3' nucleoside missing)”, with 4 score 0-7.
“RNA1{[moe](T)[sp].[moe](A)p.[moe]([m5C])p.[moe](T)p.[moe]([m5C])[sp].d(T)[sp].d(A)[sp].d(T)[sp].d(G)[sp].d(T)[sp].d(T)[sp].d(T)[sp].d(T)[sp].d([m5C])[sp].d([m5C])[sp].[moe](A)p.[moe](G)p.[moe](T)[sp].[moe](G)}$$$$ (last 3' nucleoside missing)” registered a 3 h FOB score of 1.75 score 0-7.
The same measure for “RNA1{[moe](G)[sp].[moe](T)p.[moe]([m5C])p.[moe](A)p.[moe](T)[sp].d(A)[sp].d(A)[sp].d(T)[sp].d(T)[sp].d(T)[sp].d(T)[sp].d([m5C])[sp].d(T)[sp].d(T)[sp].d(A)[sp].[moe](G)p.[moe]([m5C])p.[moe](T)[sp].[moe](A)}$$$$ (last 3' nucleoside missing)”: 0 score 0-7; for “RNA1{[moe]([m5C])[sp].[moe](T)p.[moe](T)p.[moe](A)p.[moe]([m5C])[sp].d(T)[sp].d([m5C])[sp].d(G)[sp].d(G)[sp].d([m5C])[sp].d(T)[sp].d(T)[sp].d(G)[sp].d(T)[sp].d(T)[sp].[moe]([m5C])p.[moe]([m5C])p.[moe](A)[sp].[moe]([m5C])}$$$$ (last 3' nucleoside missing)”: 0 score 0-7.
In turn, “RNA1{[moe](G)[sp].[moe]([m5C])p.[moe](A)p.[moe](A)p.[moe](G)[sp].d([m5C])[sp].d(A)[sp].d(G)[sp].d(T)[sp].d(T)[sp].d([m5C])[sp].d(T)[sp].d(T)[sp].d(T)[sp].d(T)[sp].[moe]([m5C])p.[moe](T)p.[moe](T)[sp].[moe](T)}$$$$ (last 3' nucleoside missing)” registered a 3 h FOB score of 6 score 0-7.
The same measure for “RNA1{[moe](G)[sp].[moe](T)p.[moe]([m5C])p.[moe](A)p.[moe](A)[sp].d(A)[sp].d(A)[sp].d(T)[sp].d([m5C])[sp].d(A)[sp].d(T)[sp].d(T)[sp].d([m5C])[sp].d(T)[sp].d(G)[sp].[moe](G)p.[moe](T)p.[moe](T)[sp].[moe](T)}$$$$ (last 3' nucleoside missing)”: 1 score 0-7; for “RNA1{[moe](A)[sp].[moe](T)p.[moe](G)p.[moe](T)p.[moe](T)[sp].d(A)[sp].d([m5C])[sp].d(A)[sp].d(G)[sp].d(T)[sp].d(T)[sp].d(A)[sp].d(T)[sp].d(G)[sp].d(T)[sp].[moe](T)p.[moe]([m5C])p.[moe](A)[sp].[moe]([m5C])}$$$$ (last 3' nucleoside missing)”: 2.5 score 0-7.
